Assay results taken from patent publication US20160046592A1, “PHARMACEUTICAL COMPOSITION FOR THE TREATMENT OF DIABETES” (Ajinomoto Co., Inc., priority 2013, published 2016).
Where a name gives a salt, the structure may show the parent alone.

Molecular target: T1, PPAR-α (Homo sapiens, UniProt Q07869)
T1 construct: expressed in transfected cells; host or cells: CV-1 (African green monkey kidney)
T1 sequence (Q07869 167-468): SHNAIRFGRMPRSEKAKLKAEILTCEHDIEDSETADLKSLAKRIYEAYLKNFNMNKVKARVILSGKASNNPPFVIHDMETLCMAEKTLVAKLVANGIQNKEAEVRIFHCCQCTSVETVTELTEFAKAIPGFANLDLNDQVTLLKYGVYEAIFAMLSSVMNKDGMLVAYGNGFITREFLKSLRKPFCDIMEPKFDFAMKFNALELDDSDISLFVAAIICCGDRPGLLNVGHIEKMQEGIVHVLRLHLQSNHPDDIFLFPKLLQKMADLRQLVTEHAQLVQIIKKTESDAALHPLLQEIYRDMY
Assay: Measurement of PPAR-α activity (GAL4 luciferase reporter assay in CV-1 cells)
Type: cell-based
Conditions: 100(A/B): A = maximum PPAR-α activity of test compound at 3, 10, 30 and 100 μM, B = activity of the compound of WO/2011/058154 at 100 μM, 18 to 20 hours; for Emax: read-out: Relative fold induction (%) of PPAR α
Description: The PPAR-α activity was measured according to the published article (THE JOURNAL OF BIOLOGICAL CHEMISTRY Vol. 270, No 0.22: 12953-12956, 1995).
Plasmids used for the PPAR-α activity measurement were constructed as follows. A luciferase expression plasmid (UAS×5-TK-Luc) used was obtained by introducing a sequence in which five yeast GAL4-binding sequences are linked in tandem into a portion upstream of a thymidine kinase promoter of pTAL-Luc (Takara Bio Inc., 6252-1). A PPAR-α receptor expression plasmid (hGR-GAL4-hPPARα) used was obtained by introducing a human GR N-terminal region (1-76aa), a yeast GAL4 DNA-binding region (1-147aa), and a PPARα ligand-binding region (167-468aa) between Not I and Sal I sites of pExchange-1 Core Vector (Invitrogen, 211176).
A reporter assay was conducted by the following method using African green monkey kidney-derived CV-1 cells. The CV-1 cells were seeded in a 96-well plate (Thermo Fisher Scientific K.K., 4938) at 2×10^4 cells/well by using a 10% FBS-containing DMEM (NACALAI TESQUE, INC., 0845874) medium. After culturing under conditions of 37° C. and 5% CO2 for 2 hours, the cells were transfected with the plasmids. The transfection was conducted by using Lipofectamine LTX (Invitrogen, 15338-100) according to the attached manual. The plasmid solution was prepared by adding a mixture solution of the luciferase expression plasmid and the PPAR-α receptor expression plasmid to OPTI-MEM I (Invitrogen, 11058-021). After the transfection, the test compound was added, and the cells were cultured at 37° C. in the presence of 5% CO2 for 18 to 20 hours. After the culturing, the luciferase activity was measured with Luminescensor JNR (ATTO) by using Bright-Glo (Promega, E2620).
The fold induction of PPAR-α by each test compound was calculated by the following method. A relative fold induction (%) of PPAR-α by the test compound was defined as 100 (A/B), where A represents the maximum value of the PPAR-α activities of the test compound at 3 μM, 10 μM, 30 μM, and 100 μM, and B represents the PPAR-α activity of the compound of WO/2011/058154 at 100 μM.

Compound `COCCOCCN(CC(=O)O)C(=O)c1cccc(COc2ccc(-c3cc(F)c(F)cc3SC)cc2)c1` [Example 49, 2-[[3-[[4-(4,5-Difluoro-2-methylsulfanyl-phenyl)phenoxy]methyl]benzoyl]-[2-(2-methoxyethoxy)ethyl]amino]acetic Acid] has an Emax of 29%.

`N#CCCN(CC(=O)O)C(=O)c1cccc(COc2ccc(-c3cc(F)c(F)c4ccoc34)cc2)c1` [Example 75, 2-[2-Cyanoethyl-[3-[[4-(4,5-difluorobenzofuran-7-yl)phenoxy]methyl]benzoyl]amino]acetic Acid] showed an Emax of 38%.

For `CSc1cc(F)c(F)cc1-c1ccc(OCc2cccc(C(=O)N(CC(=O)O)[C@H]3CC[C@@H](N)CC3)c2)cc1` [Example 48, 2-[(4-Aminocyclohexyl)-[3-[[4-(4,5-difluoro-2-methylsulfanyl-phenyl)phenoxy]methyl]benzoyl]amino]acetic Acid Trifluoroacetate], the Emax was 4%.

`CSc1cc(F)c(F)cc1-c1ccc(OCc2cccc(C(=O)N(CC(=O)O)Cc3cocn3)c2)cc1` [Example 52, 2-[[3-[[4-(4,5-Difluoro-2-methylsulfanyl-phenyl)phenoxy]methyl]benzoyl]-(oxazol-4-ylmethyl)amino]acetic Acid] showed an Emax of 8.1%.

Compound `CSc1cc(F)c(F)cc1-c1ccc(OCc2cccc(C(=O)N(CCc3noc(C)n3)CC(=O)O)c2)cc1` [Example 60, 2-[[3-[[4-(4,5-Difluoro-2-methylsulfanyl-phenyl)phenoxy]methyl]benzoyl]-[2-(5-methyl-1,2,4-oxadiazol-3-yl)ethyl]amino]acetic Acid] has an Emax of 14%.

For `NC(=O)C1CC[C@@H](C(=O)O)N1C(=O)c1cccc(COc2ccc(-c3cc(F)c(F)c4ccoc34)cc2)c1` (single isomer, unassigned) [Example 76, (2S,5S) or (2S,5R)-5-Carbamoyl-1-[3-[[4-(4,5-difluorobenzofuran-7-yl)phenoxy]methyl]benzoyl]pyrrolidine-2-carboxylic Acid], the “Relative fold induction (%) of PPAR α” value was 42%.

Work on `CSc1cc(F)c(F)cc1-c1ccc(OCc2cccc(C(=O)N(CCS(=O)(=O)N(C)C)CC(=O)O)c2)cc1` [Example 59, 2-[[3-[[4-(4,5-Difluoro-2-methylsulfanyl-phenyl)phenoxy]methyl]benzoyl]-[2-(dimethylsulfamoyl)ethyl]amino]acetic Acid] yielded an Emax of 10%.

Work on `CSc1cc(F)c(F)cc1-c1ccc(OCc2cccc(C(=O)N(CC(=O)O)CC(=O)O)c2)cc1` [Example 27, 2-[Carboxymethyl-[3-[[4-(4,5-difluoro-2-methylsulfanyl-phenyl)phenoxy]methyl]benzoyl]amino]acetic Acid] yielded an Emax of 10%.

With `CCN1CCC(CN(CC(=O)O)C(=O)c2cccc(COc3ccc(-c4cc(F)c(F)cc4SC)cc3)c2)CC1` [Example 38, 2-[[3-[[4-(4,5-Difluoro-2-methylsulfanyl-phenyl)phenoxy]methyl]benzoyl]-[(1-ethyl-4-piperidyl)methyl]amino]acetic Acid Trifluoroacetate] the Emax was 8.9%.

`CSc1cc(F)c(F)cc1-c1ccc(OCc2cccc(C(=O)N3C[C@H](O)C[C@H]3C(=O)O)c2)cc1` [Example 29, (2S,4R)-1-[3-[[4-(4,5-Difluoro-2-methylsulfanyl-phenyl)phenoxy]methyl]benzoyl]-4-hydroxy-pyrrolidine-2-carboxylic Acid] gave an Emax of 22%.

With `CSc1cc(F)c(F)cc1-c1ccc(OCc2cccc(C(=O)N(CCS(N)(=O)=O)CC(=O)O)c2)cc1` [Example 51, 2-[[3-[[4-(4,5-Difluoro-2-methylsulfanyl-phenyl)phenoxy]methyl]benzoyl]-(2-sulfamoylethyl)amino]acetic Acid] the Emax was 5.8%.

For `CSc1cc(F)c(F)cc1-c1ccc(OCc2cccc(C(=O)N(CC(=O)O)Cc3ccncn3)c2)cc1` [Example 53, 2-[[3-[[4-(4,5-Difluoro-2-methylsulfanyl-phenyl)phenoxy]methyl]benzoyl]-(pyrimidin-4-ylmethyl)amino]acetic Acid], the Emax was 8.2%.

Compound `CSc1cc(F)c(F)cc1-c1ccc(OCc2cccc(C(=O)N(CC(=O)O)Cc3ccon3)c2)cc1` [Example 66, 2-[[3-[[4-(4,5-Difluoro-2-methylsulfanyl-phenyl)phenoxy]methyl]benzoyl]-(isoxazol-3-ylmethyl)amino]acetic Acid] has an Emax of 22%.

`CSc1cc(F)c(F)cc1-c1ccc(OCc2cccc(C(=O)N(CC(=O)O)Cc3nc(C)no3)c2)cc1` [Example 68, 2-[[3-[[4-(4,5-Difluoro-2-methylsulfanyl-phenyl)phenoxy]methyl]benzoyl]-[(3-methyl-1,2,4-oxadiazol-5-yl)methyl]amino]acetic Acid] gave an Emax of 35%.

`CN(C)C(=O)CN(CC(=O)O)C(=O)c1cccc(COc2ccc(-c3cc(F)c(F)c4ccoc34)cc2)c1` [Example 11, 2-[[3-[[4-(4,5-Difluorobenzofuran-7-yl)phenoxy]methyl]benzoyl]-[2-(dimethylamino)-2-oxo-ethyl]amino]acetic Acid] showed an Emax of 7.4%.

Compound `O=C(O)[C@@H]1[C@@H](O)CCN1C(=O)c1cccc(COc2ccc(-c3cc(F)c(F)c4ccoc34)cc2)c1` [Example 2, (2S,3S)-1-[3-[[4-(4,5-Difluorobenzofuran-7-yl)phenoxy]methyl]benzoyl]-3-hydroxy-pyrrolidine-2-carboxylic Acid] has an Emax of 5%.

Work on `CO[C@H]1CCN(C(=O)c2cccc(COc3ccc(-c4cc(F)c(F)c5ccoc45)cc3)c2)[C@@H]1C(=O)O` [Example 78, (2S,3S)-1-[3-[[4-(4,5-Difluorobenzofuran-7-yl)phenoxy]methyl]benzoyl]-3-methoxy-pyrrolidine-2-carboxylic Acid] yielded an Emax of 65%.

Work on `CSc1cc(F)c(F)cc1-c1ccc(OCc2cccc(C(=O)N(CC(=O)O)Cc3cccnc3)c2)cc1` [Example 39, 2-[[3-[[4-(4,5-Difluoro-2-methylsulfanyl-phenyl)phenoxy]methyl]benzoyl]-(3-pyridylmethyl)amino]acetic Acid Trifluoroacetate] yielded an Emax of 22%.

Compound `CSc1cc(F)c(F)cc1-c1ccc(OCc2cccc(C(=O)N(CC(=O)O)CC3CCOCC3)c2)cc1` [Example 34, 2-[[3-[[4-(4,5-Difluoro-2-methylsulfanyl-phenyl)phenoxy]methyl]benzoyl]-(tetrahydropyran-4-ylmethyl)amino]acetic Acid] has an Emax of 7.3%.

`CSc1cc(F)c(F)cc1-c1ccc(OCc2cccc(C(=O)N(CC(N)=O)CC(=O)O)c2)cc1` [Example 10, 2-[(2-Amino-2-oxo-ethyl)-[3-[[4-(4,5-difluoro-2-methylsulfanyl-phenyl)phenoxy]methyl]benzoyl]amino]acetic Acid] was tested, and the Emax was 6.7%.

`NC(=O)CCN(CC(=O)O)C(=O)c1cccc(COc2ccc(-c3cc(F)c(F)c4ccoc34)cc2)c1` [Example 79, 2-[(3-Amino-3-oxo-propyl)-[3-[[4-(4,5-difluorobenzofuran-7-yl)phenoxy]methyl]benzoyl]amino]acetic Acid] showed an Emax of 7.1%.

With `Cc1coc2c(-c3ccc(OCc4cccc(C(=O)N(CCS(C)(=O)=O)CC(=O)O)c4)cc3)cc(F)c(F)c12` [Example 14, 2-[[3-[[4-(4,5-Difluoro-3-methyl-benzofuran-7-yl)phenoxy]methyl]benzoyl]-(2-methylsulfonylethyl)amino]acetic Acid] the Emax was 7.5%.

With `CS(=O)(=O)NCCN(CC(=O)O)C(=O)c1cccc(COc2ccc(-c3cc(F)c(F)c4ccoc34)cc2)c1` [Example 16, 2-[[3-[[4-(4,5-Difluorobenzofuran-7-yl)phenoxy]methyl]benzoyl]-[2-(methanesulfonamido)ethyl]amino]acetic Acid] the Emax was 12%.

Work on `CSc1cc(F)c(F)cc1-c1ccc(OCc2cccc(C(=O)N(CCCN(C)C)CC(=O)O)c2)cc1` [Example 26, 2-[[3-[[4-(4,5-Difluoro-2-methylsulfanyl-phenyl)phenoxy]methyl]benzoyl]-[3-(dimethylamino)propyl]amino]acetic Acid Trifluoroacetate] yielded an Emax of 11%.
